Test results: US7999009B2, “Strontium salts of sulphonic acids, a process for their preparation and pharmaceutical compositions containing them” (Les Laboratoires Servier, priority 2006, dated 2011)

Experiments:
[1] = system: fragments of bovine cartilage; assay: In vitro inhibition of bovine cartilage catabolism (cartilage fragments stimulated with TNFα and oncostatin M, 21 days); assay type: cell-based; details: for percentage inhibition of the degradation of the proteins in the cartilage: D21; for percentage inhibition of the degradation of the GAGs: D21, DMB technique
Description: The study was carried out on fragments of bovine cartilage in culture medium (96-well plate), the degradation of which is stimulated by adding TNFα and oncostatin M (Schaller, S., Henriksen, K., Hoegh-Andersen, P., Sondergaard, B. C., Sumer, E. U., Tanko, L. B., Qvist, P., Karsdal, M. A. In vitro, ex vivo, and in vivo methodological approaches for studying therapeutic targets of osteoporosis and degenerative joint diseases: how biomarkers can assist? Assay. Drug Dev. Technol. 3, 553-580 (2005).
(§1) The duration of the cultivation period is 21 days (culture medium changed every 2 days). A group not treated with TNFα and oncostatin M constitutes the control group. Five lots of stimulated cartilage fragments were treated with the compound of Example 1, each at a different dose: 0.01; 0.1; 1; 3 and 10 mM. 5 replications were carried out for each dose.
On D19, the concentration of CTX II (fragment of type II collagen resulting from the degradation of that collagen by metalloproteases) in the culture medium is measured using an ELISA technique. That parameter is expressed in ng/ml/mg of cartilage.
On D21, the following are measured in the cartilage remaining at the end of cultivation: • the quantity of proteins, using the kit marketed by Biorad. For the groups treated with the compound of Example 1, the results of this parameter are expressed as the percentage inhibition of the degradation of the proteins in the cartilage of the untreated control group; • and the quantity of glycosaminoglycans (GAGs), using the […] (DMB). That parameter, too, is expressed as a percentage inhibition of the degradation of the GAGs evaluated in the control group after culturing for 21 days. Results

[2] = system: fragments of bovine cartilage; assay: Alamar blue toxicity test in the bovine cartilage culture; assay type: cell-based; details: 21 days of cultivation, whatever the dose (0.01-10 mM)
Description: as §1
The treatment is moreover well tolerated by the cells for the 21 days of cultivation (toxicity test employed: Alamar blue—negative whatever the dose).

O=S(=O)([O-])CCCS(=O)(=O)[O-].[Sr+2] [Example 1, Strontium 1,3-propanedisulphonate]
IC50 ([1]; D19, ELISA, TNFα + oncostatin M stimulated cartilage, significant (p<0.001), dose-dependent, read-out: inhibition of the salting out of CTX II in the culture medium (IC50)): 3.5 mM | percentage inhibition of the degradation of the proteins in the cartilage ([1]; dose 1 mM): 22% | percentage inhibition of the degradation of the GAGs ([1]; dose 1 mM): 4% | percentage inhibition of the degradation of the proteins in the cartilage ([1]; dose 3 mM): 41% | percentage inhibition of the degradation of the GAGs ([1]; dose 3 mM): 8% | percentage inhibition of the degradation of the GAGs ([1]; dose 10 mM, **p < 0.01): 26%** | percentage inhibition of the degradation of the proteins in the cartilage ([1]; dose 10 mM, *p < 0.05): 55%* | toxicity test Alamar blue (tolerance by the cells) [2]: negative
